Experimental data reported in ChEMBL document CHEMBL3507680, “University of Dundee, Gates Library screen for HepG2 cell viability”.

Test: Human HepG2 cell viability assay in 384 well format
Format: toxicity, cell-based
Parameters: dose 125 nL, time 70.5 hour; cytotoxicity at 70.5 h: concentration not given beside the values
Details: HepG2 cells, read-out: Inhibition

SMILES: Cc1cnn(CC2CCCN2Cc2coc(-c3cccs3)n2)c1 (stereo not drawn)
- cytotoxicity at 70.5 h: -0.977%

SMILES: COCC(NC(=O)c1ccc[nH]1)c1cccc(C(F)(F)F)c1 (stereo not drawn)
- cytotoxicity at 70.5 h: 17.9%

SMILES: CCn1nc2c(cc1=O)CN(Cc1nc(N)c3ccccc3n1)CC2
- cytotoxicity at 70.5 h: -2.07%

SMILES: NC(=O)CCOc1nc(-c2ccccc2Cl)no1
- cytotoxicity at 70.5 h: 16.5%

SMILES: O=C(NCC(F)F)N1CCC(n2ccc(C(F)(F)F)n2)CC1
- cytotoxicity at 70.5 h: 2.24%

SMILES: CN(CCC(F)(F)F)C(=O)[C@H]1CSCN1C(=O)OC(C)(C)C
- cytotoxicity at 70.5 h: -1.73%

SMILES: CCOCCN1CCN(Cc2nnc(C3CC3)o2)CC1CC (stereo not drawn)
- cytotoxicity at 70.5 h: 13.5%

SMILES: COc1ccc(NC(C)C(=O)N2CCN(Cc3ccccc3)CC2)cn1 (stereo not drawn)
- cytotoxicity at 70.5 h: -10%

SMILES: CCc1ncc2c(n1)CN(Cc1nnc(C)o1)CC2
- cytotoxicity at 70.5 h: -8.24%

SMILES: Cc1cnn(CC2CCCN2Cc2coc(-c3ccccc3)n2)c1 (stereo not drawn)
- cytotoxicity at 70.5 h: 13.5%

SMILES: CCc1noc(C(C)N(C)CC(=O)Nc2cccc(C)n2)n1 (stereo not drawn)
- cytotoxicity at 70.5 h: -6.94%

SMILES: CCc1nc(CN2CCCC(N(C)Cc3cnn(C)c3)C2)no1 (stereo not drawn)
- cytotoxicity at 70.5 h: -10.2%

SMILES: CN(Cc1cccs1)C(=O)CN1CCCC1Cn1cncn1 (stereo not drawn)
- cytotoxicity at 70.5 h: 2.88%

SMILES: CCc1nc(CN2CCCN(c3ncnc4ccccc34)CC2)no1
- cytotoxicity at 70.5 h: 40.8%

SMILES: CC(C)c1noc(CN(Cc2ccccc2F)C2CC2)n1
- cytotoxicity at 70.5 h: -12%

SMILES: COc1cc(NC(=O)c2cc(C)sc2C)c(C(=O)N(C)C)cc1OC
- cytotoxicity at 70.5 h: -19.4%

SMILES: CC(C)Cc1noc(CN2CCC(NC(=O)c3cccs3)CC2)n1
- cytotoxicity at 70.5 h: -8.58%

SMILES: Cc1c(CC(=O)N2CCN(CC(F)(F)F)CC2)nnn1-c1ccccc1
- cytotoxicity at 70.5 h: -11.3%

SMILES: NS(=O)(=O)CCNC(=O)C1(c2ccc(Br)cc2)CC1
- cytotoxicity at 70.5 h: -10.5%

SMILES: Cc1cc(CN2CC[C@H]3C[C@@H](C)O[C@@H]3C2)no1
- cytotoxicity at 70.5 h: -7.88%

SMILES: Cn1cc(N2CCC3(CCCN(Cc4ccoc4)C3)C2=O)cn1 (stereo not drawn)
- cytotoxicity at 70.5 h: -6.63%

SMILES: O=C(c1ccco1)N1C[C@H]2CN(Cc3cccc(F)c3)C(=O)[C@H]2C1
- cytotoxicity at 70.5 h: -7.79%

SMILES: O=C(c1ccnnc1)N1C[C@H]2CN(Cc3cccc(F)c3)C(=O)[C@H]2C1
- cytotoxicity at 70.5 h: -13.7%

SMILES: Cc1cc(CN2CC[C@H]3C[C@@H](c4nccs4)O[C@@H]3C2)no1
- cytotoxicity at 70.5 h: -2.76%

SMILES: C[C@@H]1C[C@@H]2CCN(Cc3ccncc3)C[C@H]2O1
- cytotoxicity at 70.5 h: -3.23%

SMILES: Cc1noc(C)c1CN1CC[C@H]2C[C@H](c3ccncn3)O[C@@H]2C1
- cytotoxicity at 70.5 h: -8.76%

SMILES: COc1cc(N2CC[C@H](O)[C@@H]2Cc2ccccc2)ncn1
- cytotoxicity at 70.5 h: 16.6%

SMILES: CC(C)Nc1ncnc2c1CCN(C(=O)CCc1ccccc1)CC2
- cytotoxicity at 70.5 h: -3.23%

SMILES: CC(C)Nc1ncnc2c1CCN(C(=O)N1CCOCC1)CC2
- cytotoxicity at 70.5 h: 10.6%

SMILES: CN(C)C(=O)N1CCC2(CC1)C(c1cnn(C)c1)CC(=O)N2C (stereo not drawn)
- cytotoxicity at 70.5 h: -7.08%

SMILES: Cc1cccc(C(=O)N2C[C@H](NS(C)(=O)=O)[C@@H]3OCCC[C@@H]32)n1
- cytotoxicity at 70.5 h: -10.2%

SMILES: CN1CCN(Cc2ccsc2)Cc2cccnc21
- cytotoxicity at 70.5 h: -6.75%

SMILES: CN1CCN(Cc2cccnc2)Cc2cccnc21
- cytotoxicity at 70.5 h: -7.13%

SMILES: CC(C)Nc1ncnc2c1CCN(C(=O)c1ccc[nH]1)CC2
- cytotoxicity at 70.5 h: -9.63%

SMILES: CS(=O)(=O)N[C@@H]1CN(C(=O)c2cnccn2)[C@@H]2CCCO[C@@H]21
- cytotoxicity at 70.5 h: 29.4%

SMILES: COCCN1CCN(Cc2ccoc2)Cc2cccnc21
- cytotoxicity at 70.5 h: 6.66%

SMILES: CC(C)Nc1ncnc2c1CCN(C(=O)Cc1cccs1)CC2
- cytotoxicity at 70.5 h: -7.55%

SMILES: CN1CCN(Cc2ccncc2)Cc2cccnc21
- cytotoxicity at 70.5 h: -9.78%

SMILES: CN1C(=O)CC(c2cnn(C)c2)C12CCN(C(=O)c1ccno1)CC2 (stereo not drawn)
- cytotoxicity at 70.5 h: -12%

SMILES: COc1cc(N2CC[C@H](O)[C@@H]2Cc2cccnc2)ncn1
- cytotoxicity at 70.5 h: -10.8%

SMILES: Cc1cccc(COC[C@]23COC[C@H]2CN(c2ncccn2)C3)n1
- cytotoxicity at 70.5 h: -10.2%

SMILES: O=C(c1ccnnc1)N1C[C@@H]2COC[C@]2(COCC2CC2)C1
- cytotoxicity at 70.5 h: -7.55%

SMILES: O=C(c1cccs1)N1C[C@H]2CCC[C@@]2(COCC2CCOCC2)C1
- cytotoxicity at 70.5 h: 23.2%

SMILES: CNC(=O)[C@@]12CCO[C@@H]1CCN(Cc1c(C)noc1C)C2
- cytotoxicity at 70.5 h: -6.35%

SMILES: CCC1=N[C@@]2(CC[C@@H]3CN(C(=O)NCc4ccccc4C)C[C@@H]32)C(=O)N1
- cytotoxicity at 70.5 h: -11.1%

SMILES: Cc1cnc(C(=O)N2CCC3(CC2)CN(c2ccccn2)CCO3)cn1
- cytotoxicity at 70.5 h: -6.44%

SMILES: CC(C)NC(=O)C1CN(C(=O)NCc2ccccc2)CC12CCOCC2 (stereo not drawn)
- cytotoxicity at 70.5 h: 1.12%

SMILES: COCCN1CCC12CCN(C(=O)c1ccc3[nH]ccc3c1)C2 (stereo not drawn)
- cytotoxicity at 70.5 h: -7.37%

SMILES: O=C(Cc1ccccc1)N1CCC2(CC1)COCCN2CC1CC1
- cytotoxicity at 70.5 h: -9.82%

SMILES: CNC(=O)CN1CCOCC12CCN(C(=O)c1ccc(C)cc1)CC2
- cytotoxicity at 70.5 h: -6.86%

SMILES: O=C(C1CCOCC1)N1CCC2(CCN(Cc3nccs3)CC2)CC1
- cytotoxicity at 70.5 h: 9.62%

SMILES: CCOCC1CN(C(=O)c2cscn2)Cc2cn(C)nc21 (stereo not drawn)
- cytotoxicity at 70.5 h: -4.69%

SMILES: CCOCC1CN(C(=O)c2cnccn2)Cc2cnn(CC3CC3)c21 (stereo not drawn)
- cytotoxicity at 70.5 h: -10.4%

SMILES: CCOCC1CN(C(=O)c2ccncn2)Cc2cnn(CC)c21 (stereo not drawn)
- cytotoxicity at 70.5 h: -11.7%

SMILES: O=C(c1ccnnc1)N1C[C@H]2CCC[C@@]2(COCc2ccccn2)C1
- cytotoxicity at 70.5 h: -3.81%

SMILES: CN1C(=O)CC(c2cnn(C)c2)C12CCN(C(=O)c1ccncc1)CC2 (stereo not drawn)
- cytotoxicity at 70.5 h: -6.57%

SMILES: Cc1nc(COC[C@@H]2CCC[C@@]23CN(C)CCO3)cs1
- cytotoxicity at 70.5 h: 4.91%

SMILES: O=C1[C@H]2CN(Cc3cccs3)C[C@H]2CN1c1ccsc1
- cytotoxicity at 70.5 h: -5.8%

SMILES: CC(C)Nc1ncnc2c1CCN(C(=O)c1ccccc1F)CC2
- cytotoxicity at 70.5 h: -3.35%

SMILES: Cc1noc(C)c1CN1CC[C@H]2OCC[C@@]2(C(=O)N2CCCC2)C1
- cytotoxicity at 70.5 h: -5.9%

SMILES: Cc1noc(C)c1CN1CC[C@H]2OCC[C@@]2(C(=O)N2CCOCC2)C1
- cytotoxicity at 70.5 h: -4.59%

SMILES: c1cn2c(n1)CN(Cc1ccsc1)CC(Cn1cncn1)C2 (stereo not drawn)
- cytotoxicity at 70.5 h: -11.2%

SMILES: Cc1noc(C)c1CN1CC[C@H]2OCC[C@@]2(C(=O)NCC2CC2)C1
- cytotoxicity at 70.5 h: -5.64%

SMILES: Fc1cccc(CN2C[C@@H]3COC[C@]3(COCc3ccncc3)C2)c1
- cytotoxicity at 70.5 h: -1.32%

SMILES: Cn1cc(N2CC3(CCN(Cc4cccnc4)CC3)OCC2=O)cn1
- cytotoxicity at 70.5 h: -3.89%

SMILES: c1coc(CN2C[C@@H]3OCCN(CC4CCCO4)[C@@H]3C2)c1 (stereo partly drawn)
- cytotoxicity at 70.5 h: -11.5%

SMILES: COc1cc(N2C[C@@H]3COC[C@]3(COCc3ccncc3)C2)ncn1
- cytotoxicity at 70.5 h: 8.15%

SMILES: Cc1noc(C)c1CN1Cc2nccn2CC(CN2CCOCC2)C1 (stereo not drawn)
- cytotoxicity at 70.5 h: -11.8%

SMILES: c1ccc(NCc2cnc3n2CCN(CC2CCOC2)CC3)nc1 (stereo not drawn)
- cytotoxicity at 70.5 h: -8.55%

SMILES: c1cnc(N2CC3(CCN(Cc4ccncc4)C3)C2)nc1
- cytotoxicity at 70.5 h: -6.13%

SMILES: Fc1cnc(N2CCCC3(CCN(Cc4ccoc4)C3)C2)nc1 (stereo not drawn)
- cytotoxicity at 70.5 h: 11.2%

SMILES: CN1CCN(Cc2cccc(C#N)c2)Cc2cccnc21
- cytotoxicity at 70.5 h: -7.78%

SMILES: COc1cc(N2C[C@@H]3COC[C@]3(COc3ncccc3F)C2)ncn1
- cytotoxicity at 70.5 h: -9.91%

SMILES: Cc1ccc2c(n1)N(Cc1ccncc1)CCN(S(C)(=O)=O)C2
- cytotoxicity at 70.5 h: -10%

SMILES: c1cncc(-c2nnn3c2COCC(CNC2CCOCC2)C3)c1 (stereo not drawn)
- cytotoxicity at 70.5 h: 12.3%

SMILES: c1cncc(-c2nnn3c2COCC(CNCC2CCOCC2)C3)c1 (stereo not drawn)
- cytotoxicity at 70.5 h: 8.92%

SMILES: c1cnc(N2CCC3(CCN(Cc4cccnc4)CC3)CC2)nc1
- cytotoxicity at 70.5 h: -8.42%

SMILES: Cc1ccc2c(n1)N(Cc1cccnc1)CCN(C1CCOCC1)C2
- cytotoxicity at 70.5 h: 2.27%
